≈ marks a conversion by molar mass, not a printed value. Where two headings read alike, the source gives them in different places.
Assays:
Coxsackie virus B1 [1] = assay: Inhibition of viral cytopathogenic effect in HeLa cells (Coxsackie virus B1); type: cell-based; details: 24 h, read-out: IC50 Coxsackie virus B1
rhinovirus HGP = assay: Inhibition of viral cytopathogenic effect in HeLa cells (rhinovirus HGP); type: cell-based; details: Enterovirus, 48 h, read-out: IC50 rhinovirus HGP
acute toxicity in mice = details: mouse, in vivo, day 21
Coxsackie virus B1 [2] = assay: Anti-Coxsackie virus activity, lethal infection in mice
influenzavirus A2/Adachi = assay: Anti-influenzavirus activity in mice; details: up to 21 days; for Survivals: survivors/total
Coxsackie virus B1 [3] = system: Coxsackie virus B1
[4] = 50% inhibition of viral c.p.e., HeLa cells, 2 days at 33° C.
[5] = ip, single dose i.p., dissolved in dimethyl sulfoxide, read-out: LD50 i.p.
[6] = po, single dose p.o., suspended in 0.5% carboxymethylcellulose, read-out: LD50 p.o.
[7] = Mus musculus, ip, 504 h, read-out: Survival
[8] = Mus musculus, po, 504 h, read-out: Survival
[9] = 50% inhibition of viral c.p.e., HeLa cells, 1 day at 37° C.
[10] = Mus musculus, iv, 504 h, read-out: Survival

COc1cc(OC(C)=O)c2c(=O)c(OC)c(-c3ccc(OC(C)=O)c(OC)c3)oc2c1
IC50 (Coxsackie virus B1 [1]; HeLa): 0.1 to 0.2 µg/mL (≈ 0.233 to 0.467 µM) | IC50 (rhinovirus HGP; [4]): 0.1 to 0.2 µg/mL (≈ 0.233 to 0.467 µM) | LD50 at 504 h (acute toxicity in mice; [5]): > 1000 mg/kg | LD50 at 504 h (acute toxicity in mice; [6]): > 5000 mg/kg | Survival (Coxsackie virus B1 [2]; 40 mg/kg × 9, p.o., up to 21 days): 50% | responders at 10 mg/kg (Coxsackie virus B1 [2]; [7]): 54% | responders at 20 mg/kg (Coxsackie virus B1 [2]; [7]): 67% | responders at 20 mg/kg (Coxsackie virus B1 [2]; [8]): 20% | responders at 40 mg/kg (Coxsackie virus B1 [2]; [8]): 50% | responders at 80 mg/kg (Coxsackie virus B1 [2]; [8]): 60% | Survivals (influenzavirus A2/Adachi; 20 mg/kg × 9, i.p.): 2/7 | Survivals (%) (influenzavirus A2/Adachi; 20 mg/kg × 9, i.p.): 29% | Survivals (influenzavirus A2/Adachi; 40 mg/kg × 9, i.p.): 3/8 | Survivals (%) (influenzavirus A2/Adachi; 40 mg/kg × 9, i.p.): 38% | Survivors/total (Coxsackie virus B1 [3]; 10 mg/kg × 9 orally, infection 2.5x LD50, day 21): 2/7 | Survivors/total (Coxsackie virus B1 [3]; 10 mg/kg × 9 orally, infection 10x LD50, day 21): 1/7 | Survivors/total (Coxsackie virus B1 [3]; 10 mg/kg × 9 orally, infection 40x LD50, day 21): 0/7 | Survivors/total (Coxsackie virus B1 [3]; 10 mg/kg × 9 orally, infection 160x LD50, day 21): 0/7 | Survivors/total (Coxsackie virus B1 [3]; 20 mg/kg × 9 orally, infection 2.5x LD50, day 21): 3/7 | Survivors/total (Coxsackie virus B1 [3]; 20 mg/kg × 9 orally, infection 10x LD50, day 21): 2/7 | Survivors/total (Coxsackie virus B1 [3]; 20 mg/kg × 9 orally, infection 40x LD50, day 21): 1/7 | Survivors/total (Coxsackie virus B1 [3]; 20 mg/kg × 9 orally, infection 160x LD50, day 21): 1/7 | Survivors/total (Coxsackie virus B1 [3]; 40 mg/kg × 9 orally, infection 2.5x LD50, day 21): 4/7 | Survivors/total (Coxsackie virus B1 [3]; 40 mg/kg × 9 orally, infection 10x LD50, day 21): 3/7 | Survivors/total (Coxsackie virus B1 [3]; 40 mg/kg × 9 orally, infection 40x LD50, day 21): 2/7 | Survivors/total (Coxsackie virus B1 [3]; 40 mg/kg × 9 orally, infection 160x LD50, day 21): 2/7

COc1cc(O)c2c(=O)c(OC)c(-c3ccc(OC)c(O)c3)oc2c1 [3',5-dihydroxy-3,4',7-trimethoxyflavone]
IC50 (Coxsackie virus B1 [1]; [9]): 3 to 10 µg/mL (≈ 8.71 to 29 µM) | IC50 (rhinovirus HGP; [4]): 3 µg/mL (≈ 8.71 µM)

COc1cc(OC(=O)c2cccnc2)c2c(=O)c(OC)c(-c3ccc(OC(=O)c4cccnc4)c(OC)c3)oc2c1 [3,3',7-trimethoxy-4',5-bis-(nicotinoyloxy)-flavone]
IC50 (Coxsackie virus B1 [1]; [9]): 0.3 to 1 µg/mL (≈ 0.541 to 1.8 µM) | IC50 (rhinovirus HGP; [4]): 0.3 to 1 µg/mL (≈ 0.541 to 1.8 µM) | responders at 10 mg/kg (Coxsackie virus B1 [2]; [8]): 40% | responders at 20 mg/kg (Coxsackie virus B1 [2]; [8]): 30%

CCC(=O)Oc1ccc(-c2oc3cc(OC)cc(OC(=O)CC)c3c(=O)c2OC)cc1OC [3,3',7-trimethoxy-4',5-bis-(propionyloxy)-flavone]
IC50 (Coxsackie virus B1 [1]; [9]): 0.1 to 1.2 µg/mL (≈ 0.219 to 2.63 µM) | IC50 (rhinovirus HGP; [4]): 0.1 to 0.2 µg/mL (≈ 0.219 to 0.438 µM)

CCOc1c(-c2ccc(O)c(OC)c2)oc2cc(OC)cc(O)c2c1=O [3-ethoxy-4',5-dihydroxy-3',7-dimethoxyflavone]
IC50 (Coxsackie virus B1 [1]; [9]): 0.05 to 0.1 µg/mL (≈ 0.14 to 0.279 µM) | IC50 (rhinovirus HGP; [4]): 0.05 to 0.1 µg/mL (≈ 0.14 to 0.279 µM)

CCOC(=O)Oc1ccc(-c2oc3cc(OC)cc(OC(=O)OCC)c3c(=O)c2OC)cc1OC [4',5-bis-(ethoxycarbonyloxy)-3,3',7-trimethoxyflavone]
IC50 (Coxsackie virus B1 [1]; [9]): 0.3 to 1 µg/mL (≈ 0.614 to 2.05 µM) | IC50 (rhinovirus HGP; [4]): 0.3 to 1 µg/mL (≈ 0.614 to 2.05 µM) | responders at 10 mg/kg (Coxsackie virus B1 [2]; [8]): 30% | responders at 20 mg/kg (Coxsackie virus B1 [2]; [8]): 30%

COc1cc(O)c2c(=O)c(OC)c(-c3ccc(O)cc3OC)oc2c1 [4',5-dihydroxy-2,',3,7-trimethoxyflavone, 4',5-dihydroxy-2',3,7-trimethoxyflavone]
IC50 (Coxsackie virus B1 [1]; [9]): 1 to 3 µg/mL (≈ 2.9 to 8.71 µM) | IC50 (rhinovirus HGP; [4]): 0.3 µg/mL (≈ 0.871 µM)

COc1cc(O)c2c(=O)c(OC(C)C)c(-c3ccc(O)c(OC)c3)oc2c1 [4',5-dihydroxy-3-isopropoxy-3',7-dimethoxyflavone]
IC50 (Coxsackie virus B1 [1]; [9]): 0.05 to 0.1 µg/mL (≈ 0.134 to 0.269 µM) | IC50 (rhinovirus HGP; [4]): 0.05 to 0.1 µg/mL (≈ 0.134 to 0.269 µM)

COc1cc(O)c2c(=O)c(OC)c(-c3ccc(OC(=O)C(O)C(O)C(=O)O)c(OC)c3)oc2c1 (centres unmarked) [4'-(3-carboxy-2,3-dihydroxypropionyloxy)-5-hydroxy-3,3',7-trimethoxyflavone]
IC50 (Coxsackie virus B1 [1]; [9]): 0.1 to 0.2 µg/mL (≈ 0.21 to 0.42 µM) | IC50 (rhinovirus HGP; [4]): 0.1 to 0.2 µg/mL (≈ 0.21 to 0.42 µM)

COc1cc(O)c2c(=O)c(OC)c(-c3ccc(OC(=O)[C@H](C)N)c(OC)c3)oc2c1 [4'-(L-alanyloxy)-5-hydroxy-3,3',7-trimethoxyflavone]
IC50 (Coxsackie virus B1 [1]; HeLa): 0.25 to 0.5 µg/mL (≈ 0.602 to 1.2 µM) | IC50 (rhinovirus HGP; [4]): 0.5 µg/mL (≈ 1.2 µM) | LD50 at 504 h (acute toxicity in mice; [5]): > 1000 mg/kg | LD50 at 504 h (acute toxicity in mice; [6]): > 5000 mg/kg | responders at 10 mg/kg (Coxsackie virus B1 [2]; [10]): 42%

COc1cc(O)c2c(=O)c(OC)c(-c3ccc(OC(=O)[C@@H](N)CCC(N)=O)c(OC)c3)oc2c1 [4'-(L-glutaminyloxy)-5-hydroxy-3,3',7-trimethoxyflavone]
IC50 (Coxsackie virus B1 [1]; HeLa): 0.25 to 0.5 µg/mL (≈ 0.529 to 1.06 µM) | IC50 (rhinovirus HGP; [4]): 0.25 to 0.5 µg/mL (≈ 0.529 to 1.06 µM) | LD50 at 504 h (acute toxicity in mice; [5]): > 1000 mg/kg | LD50 at 504 h (acute toxicity in mice; [6]): > 5000 mg/kg | responders at 10 mg/kg (Coxsackie virus B1 [2]; [10]): 54%

COc1cc(O)c2c(=O)c(OC)c(-c3ccc(OC(=O)[C@@H](N)CCC(=O)O)c(OC)c3)oc2c1 [4'-(L-α-glutamyloxy)-5-hydroxy-3,3',7-trimethoxyflavone]
IC50 (Coxsackie virus B1 [1]; [9]): 0.25 to 0.5 µg/mL (≈ 0.528 to 1.06 µM) | IC50 (rhinovirus HGP; [4]): 0.25 µg/mL (≈ 0.528 µM)

COc1cc(O)c2c(=O)c(OC)c(-c3ccc(O[C@@H]4O[C@H](CO)[C@@H](O)[C@H](O)[C@H]4O)c(OC)c3)oc2c1 [4'-(β-D-glucopyranosyloxy)-5-hydroxy-3,3',7-trimethoxyflavone]
IC50 (Coxsackie virus B1 [1]; [9]): 0.25 to 0.5 µg/mL (≈ 0.494 to 0.987 µM) | IC50 (rhinovirus HGP; [4]): 0.25 µg/mL (≈ 0.494 µM)

COc1cc(O)c2c(=O)c(OC)c(-c3ccc(OC(C)=O)c(OC)c3)oc2c1 [4'-acetoxy-5-hydroxy-3,3',7-trimethoxyflavone]
IC50 (Coxsackie virus B1 [1]; [9]): 0.25 to 0.5 µg/mL (≈ 0.647 to 1.29 µM) | IC50 (rhinovirus HGP; [4]): 0.5 µg/mL (≈ 1.29 µM)

COc1c(-c2ccc(N)cc2)oc2cc(O)cc(O)c2c1=O [4'-amino-5,7-dihydroxy-3-methoxyflavone]
IC50 (Coxsackie virus B1 [1]; [9]): 3 to 10 µg/mL (≈ 10 to 33.4 µM) | IC50 (rhinovirus HGP; [4]): 1 to 3 µg/mL (≈ 3.34 to 10 µM)

COc1cc(O)c2c(=O)c(OC)c(-c3ccc(N)cc3)oc2c1 [4'-amino-5-hydroxy-3,7-dimethoxyflavone]
IC50 (Coxsackie virus B1 [1]; [9]): 10 to 30 µg/mL (≈ 31.9 to 95.8 µM) | IC50 (rhinovirus HGP; [4]): 3 µg/mL (≈ 9.58 µM)

COc1cc(OC)c2c(=O)c(OC)c(-c3ccc(O)c(OC)c3)oc2c1 [4'-hydroxy-3,3',5,7-tetramethoxyflavone]
IC50 (Coxsackie virus B1 [1]; [9]): 6 to 7 µg/mL (≈ 16.7 to 19.5 µM) | IC50 (rhinovirus HGP; [4]): 2 to 7 µg/mL (≈ 5.58 to 19.5 µM)

COc1ccc(-c2oc3cc(O)cc(O)c3c(=O)c2OC)cc1 [5,7-dihydroxy-3,4'-dimethoxyflavone]
IC50 (Coxsackie virus B1 [1]; HeLa): > 4 µg/mL | IC50 (rhinovirus HGP; HeLa): 0.5 µg/mL (≈ 1.59 µM)

COc1cc(OC(=O)C(C)C)c2c(=O)c(OC)c(-c3ccc(OC(=O)C(C)(C)C)c(OC)c3)oc2c1 [5-(isobutyryloxy)-3,3',7-trimethoxy-4'-(pivaloyloxy)-flavone]
IC50 (Coxsackie virus B1 [1]; [9]): 0.3 to 1 µg/mL (≈ 0.602 to 2.01 µM) | IC50 (rhinovirus HGP; [4]): 0.3 µg/mL (≈ 0.602 µM) | responders at 10 mg/kg (Coxsackie virus B1 [2]; [8]): 30% | responders at 20 mg/kg (Coxsackie virus B1 [2]; [8]): 40%

COc1cc(O)c2c(=O)c(OC)c(-c3ccc(OC(=O)C(C)(C)C)c(OC)c3)oc2c1 [5-hydroxy-3,3',7-trimethoxy-4'-(pivaloyloxy)-flavone]
IC50 (Coxsackie virus B1 [1]; [9]): 0.3 to 1 µg/mL (≈ 0.7 to 2.33 µM) | IC50 (rhinovirus HGP; [4]): 0.3 µg/mL (≈ 0.7 µM)

COc1ccc(-c2oc3cc(OC)cc(O)c3c(=O)c2OC)cc1 [5-hydroxy-3,4',7-trimethoxyflavone]
IC50 (Coxsackie virus B1 [1]; [9]): > 8 µg/mL | IC50 (rhinovirus HGP; [4]): 1 µg/mL (≈ 3.05 µM)

COc1cc(O)c2c(=O)c(OC)c(-c3ccc(OC(=O)[C@@H](N)CCCCN)c(OC)c3)oc2c1 [5-hydroxy-4'-(L-lysyloxy)-3,3',7-trimethoxyflavone]
IC50 (Coxsackie virus B1 [1]; HeLa): 0.25 µg/mL (≈ 0.529 µM) | IC50 (rhinovirus HGP; [4]): 0.25 µg/mL (≈ 0.529 µM) | LD50 at 504 h (acute toxicity in mice; [5]): 1000 mg/kg | LD50 at 504 h (acute toxicity in mice; [6]): > 5000 mg/kg | responders at 10 mg/kg (Coxsackie virus B1 [2]; [10]): 54%

NC12CC3CC(CC(C3)C1)C2 [amantadine, reference compound]
Survivals (%) (influenzavirus A2/Adachi; 20 mg/kg × 9, i.p.): 0% | Survivals (influenzavirus A2/Adachi; 40 mg/kg × 9, i.p.): 2/7 | Survivals (%) (influenzavirus A2/Adachi; 40 mg/kg × 9, i.p.): 29%

— patent US4352792A, “3-Alkoxyflavone antiviral agents” (priority 1979, dated 1982)
